How the values were obtained:
[1] = In vivo pharmacokinetics in rats, single intravenous injection or oral gavage; conditions: male, SD, plasma, Rat; for Vd: read-out: Vss
Description: The in vivo pharmacokinetics in rats were evaluated via a single intravenous injection or oral gavage administration in this test example. • 1. Test Methods and Conditions: Male SD rats were fasted overnight and administered a single intravenous dose of 2 mg/kg or 1 mg/kg of the test compound (solvent for Intravenous administration was 5% DMSO/10% Solutol® HS 15/10% EtOH/75% saline, with a dosing volume of 5 mL/kg) and an oral gavage dose of 10 mg/kg or 5 mg/kg of the test compound (solvent for administration was 0.5% CMC-Na, with a dosing volume of 10 mL/kg), respectively. • 2. Sampling Information: Blood samples (0.2 mL) were collected from the retroorbital venous plexus at the designated time points: 0.25, 0.5, 1.0, 2.0, 3.0, 4.0, 6.0, 8.0, and 24 hours before and after dosing (a 5 min sampling point was added for the intravenous administration group), respectively. The samples were placed in EDTA-K2 tubes and centrifuged at 11,000 rpm for 5 minutes. Plasma was separated and frozen at -20°C. • 3. Assay Information: LC/MS/MS was used to determine the concentration of the parent drug in rat/mouse plasma following intravenous and oral gavage administration of the test compound. Pharmacokinetic parameters in rat/mouse plasma were calculated for both administration routes, and the bioavailability of each compound in rats was also calculated. Table 5: Intravenous Pharmacokinetic Information of Representative Compounds

[2] = target: human Nav1.8 sodium channel (Homo sapiens, UniProt Q9Y5Y9); test: Blocking activity on sodium channel 1.8 (Nav1.8), whole-cell manual patch clamp; assay type: cell-based; conditions: for inhibition Percent @1 nM: 1 nM compound, 0.001 µM; for inhibition at 0.01 µM: read-out: inhibition Percent @10 nM, 10 nM compound; for inhibition at 0.001 µM: read-out: inhibition Percent @1 nM, 1 nM compound; for inhibition at 0.03 µM: read-out: inhibition Percent @30 nM, 30 nM compound
Sequence of human Nav1.8 sodium channel (Q9Y5Y9 whole entry): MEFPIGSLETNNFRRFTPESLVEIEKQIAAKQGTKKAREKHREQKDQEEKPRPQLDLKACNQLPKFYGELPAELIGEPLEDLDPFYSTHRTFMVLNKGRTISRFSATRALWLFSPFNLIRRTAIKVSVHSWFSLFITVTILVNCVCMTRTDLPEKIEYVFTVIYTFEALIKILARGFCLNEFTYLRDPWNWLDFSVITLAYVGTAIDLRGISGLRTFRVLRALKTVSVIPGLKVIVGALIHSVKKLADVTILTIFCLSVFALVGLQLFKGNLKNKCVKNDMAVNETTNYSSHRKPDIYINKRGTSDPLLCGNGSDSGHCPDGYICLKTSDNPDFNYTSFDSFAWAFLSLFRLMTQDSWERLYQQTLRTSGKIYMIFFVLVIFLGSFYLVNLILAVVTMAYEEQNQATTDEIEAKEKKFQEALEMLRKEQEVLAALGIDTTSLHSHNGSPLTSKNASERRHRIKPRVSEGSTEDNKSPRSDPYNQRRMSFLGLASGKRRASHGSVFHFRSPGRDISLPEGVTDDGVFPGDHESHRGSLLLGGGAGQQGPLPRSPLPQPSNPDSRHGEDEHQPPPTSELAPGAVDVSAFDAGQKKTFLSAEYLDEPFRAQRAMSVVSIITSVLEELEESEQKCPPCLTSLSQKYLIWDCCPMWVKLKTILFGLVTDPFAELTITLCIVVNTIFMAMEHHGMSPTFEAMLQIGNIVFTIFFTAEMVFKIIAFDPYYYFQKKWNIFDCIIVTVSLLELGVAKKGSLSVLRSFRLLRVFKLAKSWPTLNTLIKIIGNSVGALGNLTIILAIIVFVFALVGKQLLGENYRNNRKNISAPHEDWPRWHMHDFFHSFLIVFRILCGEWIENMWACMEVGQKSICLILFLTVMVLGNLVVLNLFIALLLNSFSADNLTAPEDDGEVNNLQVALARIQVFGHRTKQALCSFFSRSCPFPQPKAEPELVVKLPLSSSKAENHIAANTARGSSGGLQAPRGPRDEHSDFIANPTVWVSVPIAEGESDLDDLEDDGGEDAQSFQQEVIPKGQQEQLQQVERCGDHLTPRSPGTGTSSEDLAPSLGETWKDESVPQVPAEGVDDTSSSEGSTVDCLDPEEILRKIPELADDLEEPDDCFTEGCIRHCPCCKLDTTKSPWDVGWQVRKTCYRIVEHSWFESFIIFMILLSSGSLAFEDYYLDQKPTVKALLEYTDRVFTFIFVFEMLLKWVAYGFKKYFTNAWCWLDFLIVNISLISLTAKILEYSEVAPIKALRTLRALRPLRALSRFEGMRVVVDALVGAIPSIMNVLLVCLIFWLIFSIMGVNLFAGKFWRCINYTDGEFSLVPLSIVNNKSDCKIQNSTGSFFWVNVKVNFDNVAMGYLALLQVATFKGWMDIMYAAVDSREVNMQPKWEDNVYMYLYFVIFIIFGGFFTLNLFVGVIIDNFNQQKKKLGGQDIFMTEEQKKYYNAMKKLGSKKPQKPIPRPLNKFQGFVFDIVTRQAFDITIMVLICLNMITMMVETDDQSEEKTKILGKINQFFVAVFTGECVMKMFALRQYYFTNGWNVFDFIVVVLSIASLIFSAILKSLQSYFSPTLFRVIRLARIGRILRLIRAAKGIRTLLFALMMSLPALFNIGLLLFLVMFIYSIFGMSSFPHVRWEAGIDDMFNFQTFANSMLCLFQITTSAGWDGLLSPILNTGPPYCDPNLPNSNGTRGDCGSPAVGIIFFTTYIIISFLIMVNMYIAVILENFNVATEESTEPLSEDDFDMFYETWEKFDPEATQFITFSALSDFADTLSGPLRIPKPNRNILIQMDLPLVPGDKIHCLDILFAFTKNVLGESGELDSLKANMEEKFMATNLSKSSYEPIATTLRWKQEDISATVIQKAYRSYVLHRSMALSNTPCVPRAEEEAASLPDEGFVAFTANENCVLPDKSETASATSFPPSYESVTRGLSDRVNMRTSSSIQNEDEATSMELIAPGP

[3] = intravenous, single dose 2 mg/kg or 1 mg/kg (figure not given)

For `Cc1cc(F)ccc1Oc1cc(C(F)(F)F)ccc1C(=O)Nc1cc[nH]c(=O)c1` [VX-150, reference compound], the AUC(0-t) [1, 3] was 2510 ng·h/mL, the clearance [1, 3] was 13.9 mL/min/kg and the half-life [1, 3] was 1.08 h. For the same compound, the Vd [1, 3] was 1.09 L/kg, the AUC(0-t) ([1]; oral gavage, 10mg/kg) was 3810 ng·h/mL and the Cmax ([1]; oral gavage, 10mg/kg) was 723 ng/mL. The Tmax ([1]; oral gavage, 10mg/kg) was 2 h, the half-life ([1]; oral gavage, 10mg/kg) was 2.88 h and the bioavailability ([1]; oral gavage, 10mg/kg) was 30.4%.
With `Cc1nc(N2CCC(F)(F)C(C)C2)c(C(=O)Nc2ccc(F)c(C(N)=NO)c2)cc1Cl` (single isomer, unassigned) [Compound I-41-P2, 5-chloro-2-(4,4-difluoro-3-methylpiperidin-1-yl)-N-(4-fluoro-3-(N'-hydroxyamidino)phenyl)-6-(methyl)nicotinamide] the “inhibition Percent @1 nM” value [2] was 35%.
`N#CN=C(N)c1cc(NC(=O)c2cc(Cl)c(C(F)(F)F)nc2N2CCCC(F)(F)CC2)ccc1F` [Compound I-37, 5-chloro-N-(3-(N'-cyanoamidino)-4-fluorophenyl)-2-(4,4-difluoroazepan-1-yl)-6-triflu oromethylnicotinamide] showed an inhibition at 0.01 µM [2] of 62%.
For `COc1ccc(NC(=O)c2cc(Cl)c(C)nc2N2CCCC(F)(F)CC2)cc1C(=N)N` [Compound I-10, N-(3-amidino-4-methoxyphenyl)-5-chloro-2-(4,4-difluoroazepan-1-yl)-6-methylnicoti namide], the inhibition at 0.001 µM [2] was 32%.
In the case of `NC(=NO)c1cc(NC(=O)c2cc(Cl)c(Cl)cc2N2CCCC(F)(F)CC2)ccc1F` [Compound I-47, 4,5-dichloro-2-(4,4-difluoroazepan-1-yl)-N-(4-fluoro-3-(N'-hydroxyamidino)phenyl)be nzamide], the inhibition at 0.01 µM [2] is reported as 80%.
With `Cc1nc(N2CCCC(F)(F)CC2)c(C(=O)Nc2ccnc(C(N)=NO)c2)cc1Cl` [Compound I-15, 5-chloro-2-(4,4-difluoroazepan-1-yl)-N-(2-(N'-hydroxyamidinoimino)pyridin-4-yl)-6-m ethylnicotinamide] the inhibition at 0.001 µM [2] was 66%.
`Cc1nc(N2CCCC(F)(F)CC2)c(C(=O)Nc2ccc(C(N)=NO)cc2)cc1Cl` [Compound I-13, 5-chloro-2-(4,4-difluoroazepan-1-yl)-N-(4-(N'-hydroxyamidino)phenyl)-6-methylnicoti namide] showed an inhibition at 0.001 µM [2] of 85%.
Work on `Cc1ccc(NC(=O)c2cc(Cl)c(C)nc2N2CCCC(F)(F)CC2)cc1C(N)=NO` [Compound I-7, 5-chloro-2-(4,4-difluoroazepan-1-yl)-N-(3-(N'-hydroxyamidino)-4-methylphenyl)-6-me thylnicotinamide] yielded an inhibition at 0.01 µM [2] of 83%.
`NC(=NO)c1cc(NC(=O)c2cc(Cl)c(CF)nc2N2CCCC(F)(F)CC2)ccc1F` [Compound I-44, 5-chloro-2-(4,4-difluoroazepan-1-yl)-N-(4-fluoro-3-(N'-hydroxyamidino)phenyl)-6-(fluoromethyl)nicotinamide] gave an inhibition at 0.001 µM [2] of 32%.
With `CC1CN(c2nc(C(F)(F)F)c(Cl)cc2C(=O)Nc2ccc(F)c(C(N)=NO)c2)CCC1(F)F` (single isomer, unassigned) [Compound I-40-P1, 5-chloro-2-(4,4-difluoro-3-methylpiperidin-1-yl)-N-(4-fluoro-3-(N'-hydroxyamidino)phenyl)-6-(trifluoromethyl)nicotinamide] the inhibition at 0.001 µM [2] was 59%.
In the case of `CC1CN(c2nc(C(F)(F)F)c(Cl)cc2C(=O)Nc2ccc(F)c(C(N)=NO)c2)CCC1(F)F` (single isomer, unassigned) [Compound I-40-P2, 5-chloro-2-(4,4-difluoro-3-methylpiperidin-1-yl)-N-(4-fluoro-3-(N'-hydroxyamidino)phenyl)-6-(trifluoromethyl)nicotinamide], the “inhibition Percent @1 nM” value [2] is reported as 63%.
`Cc1nc(N2CCCC(F)(F)CC2)c(C(=O)Nc2ccc(Cl)c(C(=N)N)c2)cc1Cl` [Compound I-6, N-(3-amidino-4-chlorophenyl)-5-chloro-2-(4,4-difluoroazepan-1-yl)-6-methylnicotinamide] gave an inhibition at 0.001 µM [2] of 65%.
Work on `N=C(N)c1cc(NC(=O)c2cc(Cl)c(C(F)F)nc2C2CCCC(F)(F)CC2)ccc1F` (centres unmarked) [Compound I-39, N-(3-amidino-4-fluorophenyl)-5-chloro-2-(4,4-difluorocycloheptan-1-yl)-6-difluorome thylnicotinamide] yielded an inhibition at 0.001 µM [2] of 51%.
Work on `CN(C)c1nc(N2CCCC(F)(F)CC2)c(C(=O)Nc2ccc(F)c(C(N)=NO)c2)cc1Cl` [Compound I-43, 5-chloro-2-(4,4-difluoroazepan-1-yl)-6-(dimethylamino)-N-(4-fluoro-3-(N'-hydroxyamidino)phenyl)nicotinamide] yielded an inhibition at 0.001 µM [2] of 55%.
In the case of `Cc1nc(N2CCCCCC2)c(C(=O)Nc2cccc(C(=N)N)c2)cc1Cl` [Compound I-23, 2-(azepan-1-yl)-N-(3-amidinophenyl)-5-chloro-6-methylnicotinamide], the inhibition at 0.03 µM [2] is reported as 95%.
Compound `Cc1nc(N2CCCC(F)(F)CC2)c(C(=O)Nc2ccc(F)c(C(N)=NO)c2)cc1C(F)(F)F` [Compound I-27, 2-(4,4-difluoroazepan-1-yl)-N-(4-fluoro-3-(N'-hydroxyamidino)phenyl)-6-methyl-5-(trifluoromethyl)nicotinamide] has an inhibition at 0.01 µM [2] of 83%.
Work on `Cc1nc(N2CCCC(F)(F)CC2)c(C(=O)Nc2cccc(C(=O)NC(=N)N)c2)cc1Cl` [Compound I-18, N-(3-(amidinocarbamoyl)phenyl)-5-chloro-2-(4,4-difluoroazepan-1-yl)-6-methylnicoti namide] yielded an inhibition at 0.03 µM [2] of 90%.
Work on `C#Cc1cc(C(=O)Nc2ccc(F)c(C(N)=NO)c2)c(N2CCCC(F)(F)CC2)nc1C` [Compound I-26, 2-(4,4-difluoroazepan-1-yl)-5-ethynyl-N-(4-fluoro-3-(N'-hydroxyamidino)phenyl)-6-m ethylnicotinamide] yielded an inhibition at 0.01 µM [2] of 76%.
For `Cc1nc(N2CCCC(F)(F)CC2)c(C(=O)Nc2ccc(Cl)c(C(N)=NO)c2)cc1Cl` [Compound I-5, 5-chloro-2-(4,4-difluoroazepan-1-yl)-N-(4-chloro-3-(N'-hydroxyamidino)phenyl)-6-me thylnicotinamide], the inhibition at 0.001 µM [2] was 82%.
`O=C(Nc1ccc2c(c1)S(=O)(=O)NC2)c1c(N2CCCC(F)(F)CC2)ccc(C(F)(F)F)c1Cl` [Compound I-31, 2-chloro-6-(4,4-difluoroazepan-1-yl)-N-(1,1-dioxo-2,3-dihydrobenzisothiazol-6-yl)-3-tr ifluoromethylbenzamide] gave an inhibition at 0.001 µM [2] of 46%.
`Cc1nc(N2CCCC(F)(F)CC2)c(C(=O)Nc2ccc(F)c(NC(=N)N)c2)cc1Cl` [Compound I-19, 5-chloro-2-(4,4-difluoroazepan-1-yl)-N-(4-fluoro-3-guanidinophenyl)-6-methylnicotin amide] gave an inhibition at 0.001 µM [2] of 49%.
`CCc1nc(N2CCCC(F)(F)CC2)c(C(=O)Nc2ccc(F)c(C(N)=NO)c2)cc1Cl` [Compound I-45, 5-chloro-2-(4,4-difluoroazepan-1-yl)-6-ethyl-N-(4-fluoro-3-(N'-hydroxyamidino)pheny I)nicotinamide] showed an inhibition at 0.001 µM [2] of 94%.
`Cc1nc(N2CCCC(F)(F)CC2)c(C(=O)Nc2ccc(F)c(C(=N)N)c2)cc1Cl` [Compound I-2, N-(3-amidino-4-fluorophenyl)-5-chloro-2-(4,4-difluoroazepan-1-yl)-6-methylnicotinamide] showed an inhibition at 0.001 µM [2] of 79%.
Compound `NC(=NO)c1cc(NC(=O)c2cc(Cl)c(C(F)F)nc2N2CCCC(F)(F)CC2)ccc1F` [Compound I-38, 5-chloro-2-(4,4-difluoroazepan-1-yl)-6-(difluoromethyl)-N-(4-fluoro-3-(N'-hydroxyamidino)phenyl)nicotinamide] has an inhibition at 0.001 µM [2] of 33%.
Work on `Cc1ccc(C(=O)Nc2ccc(F)c(C(N)=NO)c2)c(N2CCCC(F)(F)CC2)n1` [Compound I-29, 2-(4,4-difluoroazepan-1-yl)-N-(4-fluoro-3-(N'-hydroxyamidino)phenyl)-6-methylnicoti namide] yielded an inhibition at 0.01 µM [2] of 57%.
In the case of `Cc1nc(N2CCCC(F)(F)CC2)c(C(=O)Nc2ccc(F)c(C(=O)NC(=N)N)c2)cc1Cl` [Compound I-17, N-(3-(amidinocarbamoyl)-4-fluorophenyl)-5-chloro-2-(4,4-difluoroazepan-1-yl)-6-met hylnicotinamide], the inhibition at 0.03 µM [2] is reported as 99%.
Compound `NC(=NO)c1cc(NC(=O)c2cc(Cl)c(N3CCCC3)nc2N2CCCC(F)(F)CC2)ccc1F` [Compound I-46, 5-chloro-2-(4,4-difluoroazepan-1-yl)-N-(4-fluoro-3-(N'-hydroxyamidino)phenyl)-6-(pyrrolidinyl)nicotinamide] has an inhibition at 0.01 µM [2] of 50%.
With `Cc1nc(N2CCCC(F)(F)CC2)c(C(=O)Nc2ccc(F)c(C(N)=NC#N)c2)cc1Cl` [Compound I-3, 5-chloro-N-(3-(N'-cyanoamidino)-4-fluorophenyl)-2-(4,4-difluoroazepan-1-yl)-6-meth ylnicotinamide] the AUC(0-t) [1, 3] was 567 ng·h/mL, the clearance [1, 3] was 29.7 mL/min/kg and the half-life [1, 3] was 0.325 h. For the same compound, the Vd [1, 3] was 0.442 L/kg, the AUC(0-t) ([1]; oral gavage, 5mg/kg) was 1770 ng·h/mL and the Cmax ([1]; oral gavage, 5mg/kg) was 381 ng/mL. It also gave a Tmax ([1]; oral gavage, 5mg/kg) of 6 h, a half-life ([1]; oral gavage, 5mg/kg) of 2.08 h and a bioavailability ([1]; oral gavage, 5mg/kg) of 62.4%.

— patent EP4700018A1, “NAV1.8 INHIBITORS, PREPARATION METHOD THEREFOR AND USE THEREOF” (Shanghai Institute of Materia Medica, Chinese Academy of …, priority 2023, dated 2024)
